Experimental data reported in ChEMBL document CHEMBL5214891, “The subgroup of 2'-hydroxy-flavonoids: Molecular diversity, mechanism of action, and anticancer properties” (Bioorg Med Chem, 2021).

How the values were obtained:
[1] = Dissociation constant, pKa of compound; assay type: physicochemical
[2] = target: 11-beta-hydroxysteroid dehydrogenase 1 (Homo sapiens, UniProt P28845); assay: Inhibition of human 11beta-HSD1 expressed in HEK-293 cells incubated for 10 mins; assay type: cell-based, HEK293
11-beta-hydroxysteroid dehydrogenase 1, sequence (P28845 whole entry): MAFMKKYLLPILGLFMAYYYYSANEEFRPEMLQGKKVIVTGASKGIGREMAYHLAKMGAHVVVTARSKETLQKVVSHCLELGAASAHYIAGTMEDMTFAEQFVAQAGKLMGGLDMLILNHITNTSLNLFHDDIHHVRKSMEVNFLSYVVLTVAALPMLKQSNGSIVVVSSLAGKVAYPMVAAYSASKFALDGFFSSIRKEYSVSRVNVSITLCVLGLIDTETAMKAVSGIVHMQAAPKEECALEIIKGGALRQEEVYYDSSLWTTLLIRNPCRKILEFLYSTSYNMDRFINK

[3] = Downregulation of PSA mRNA expression in human LNCaP cells measured after 12 hrs by RT-PCR assay; assay type: functional, cell-based

Row | IC50 [3] [µM] | Compound | pKa [1] | IC50 [2] [µM]
1 |  | O=C1CC(c2ccccc2O)Oc2ccccc21 (stereo not drawn) [2'-HYDROXY-FLAVANONE] | 6.67 | 10
2 | 18 | O=c1c(-c2ccc(O)cc2O)coc2cc(O[C@@H]3O[C@H](CO)[C@@H](O)[C@H](O)[C@H]3O)cc(O)c12 |  | 
